Source: ChEMBL document CHEMBL3608284, “C4 phenyl aporphines with selective h5-HT(2B) receptor affinity” (Bioorg Med Chem Lett, 2015)

Assays:
[1] = molecular target: 5-hydroxytryptamine receptor 1B (Homo sapiens, UniProt P28222); assay: Displacement of [3H]GR125743 from 5HT1B receptor (unknown origin) at 10 uM
[2] = molecular target: 5-hydroxytryptamine receptor 1D (Homo sapiens) (UniProt P28221); assay: Displacement of [3H]GR125743 from 5HT1D receptor (unknown origin) at 10 uM
[3] = molecular target: 5-hydroxytryptamine receptor 1E (Homo sapiens) (UniProt P28566); assay: Displacement of [3H]5HT from 5HT1E receptor (unknown origin) at 10 uM
[4] = molecular target: 5-hydroxytryptamine receptor 2A (Homo sapiens) (UniProt P28223); assay: Displacement of [3H]ketanserin from 5HT2A receptor (unknown origin) at 10 uM
[5] = molecular target: T1, 5-hydroxytryptamine receptor 3A (Homo sapiens) (UniProt P46098); assay: Displacement of [3H]LY278584 from 5HT3 receptor (unknown origin) at 10 uM
T1 sequence (whole entry): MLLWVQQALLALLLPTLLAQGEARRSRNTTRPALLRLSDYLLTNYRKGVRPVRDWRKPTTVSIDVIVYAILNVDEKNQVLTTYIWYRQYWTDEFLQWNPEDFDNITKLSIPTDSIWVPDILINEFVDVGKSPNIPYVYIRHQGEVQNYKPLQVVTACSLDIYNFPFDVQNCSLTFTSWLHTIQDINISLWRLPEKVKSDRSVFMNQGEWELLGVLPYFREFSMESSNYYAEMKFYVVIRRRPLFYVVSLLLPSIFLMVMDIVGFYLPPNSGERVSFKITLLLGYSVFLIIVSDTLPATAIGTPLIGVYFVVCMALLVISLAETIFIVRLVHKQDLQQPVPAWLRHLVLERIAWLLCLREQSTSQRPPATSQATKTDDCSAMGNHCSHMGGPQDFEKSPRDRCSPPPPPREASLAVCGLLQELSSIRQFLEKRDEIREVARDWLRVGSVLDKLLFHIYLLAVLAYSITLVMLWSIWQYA

[6] = molecular target: Alpha-1A adrenergic receptor (Homo sapiens) (UniProt P35348); assay: Binding affinity to alpha1A adrenoceptor (unknown origin) at 10 uM
[7] = molecular target: Alpha-1B adrenergic receptor (Homo sapiens) (UniProt P35368); assay: Binding affinity to alpha1B adrenoceptor (unknown origin) at 10 uM
[8] = molecular target: Beta-1 adrenergic receptor (Homo sapiens) (UniProt P08588); assay: Binding affinity to beta1 adrenoceptor (unknown origin) at 10 uM
[9] = molecular target: Beta-2 adrenergic receptor (Homo sapiens) (UniProt P07550); assay: Binding affinity to beta2 adrenoceptor (unknown origin) at 10 uM
[10] = molecular target: Beta-3 adrenergic receptor (Homo sapiens) (UniProt P13945); assay: Binding affinity to beta3 adrenoceptor (unknown origin) at 10 uM
Rattus norvegicus = organism: Rattus norvegicus; assay: Binding affinity to benzodiazepine receptor in rat brain; type: tissue-based; conditions: concentration not given here
[11] = molecular target: Cannabinoid receptor 2 (Homo sapiens) (UniProt P34972); assay: Binding affinity to CB2 receptor (unknown origin) at 10 uM
[12] = molecular target: D(1A) dopamine receptor (Homo sapiens) (UniProt P21728); assay: Binding affinity to dopamine D1 receptor (unknown origin) at 10 uM
[13] = molecular target: D(2) dopamine receptor (Homo sapiens) (UniProt P14416); assay: Binding affinity to dopamine D2 receptor (unknown origin) at 10 uM
[14] = molecular target: D(3) dopamine receptor (Homo sapiens) (UniProt P35462); assay: Binding affinity to dopamine D3 receptor (unknown origin) at 10 uM
[15] = molecular target: D(4) dopamine receptor (Homo sapiens) (UniProt P21917); assay: Binding affinity to dopamine D4 receptor (unknown origin) at 10 uM
[16] = molecular target: D(1B) dopamine receptor (Homo sapiens) (UniProt P21918); assay: Binding affinity to dopamine D5 receptor (unknown origin) at 10 uM
[17] = molecular target: Sodium-dependent dopamine transporter (Homo sapiens) (UniProt Q01959); assay: Binding affinity to DAT (unknown origin) at 10 uM
[18] = molecular target: Delta-type opioid receptor (Homo sapiens) (UniProt P41143); assay: Binding affinity to DOR (unknown origin) at 10 uM
[19] = molecular target: GABA-A receptor; agonist GABA site (Homo sapiens) (UniProt P14867+P47870+P28472+P48169+P34903+P18505+P47869+P31644+Q16445); assay: Binding affinity to GABAA receptor (unknown origin) at 10 uM; type: protein-complex assay
[20] = molecular target: Histamine H1 receptor (Homo sapiens) (UniProt P35367); assay: Binding affinity to histamine H1 receptor (unknown origin) at 10 uM
[21] = molecular target: Histamine H2 receptor (Homo sapiens) (UniProt P25021); assay: Binding affinity to histamine H2 receptor (unknown origin) at 10 uM
[22] = molecular target: Histamine H4 receptor (Homo sapiens) (UniProt Q9H3N8); assay: Binding affinity to histamine H4 receptor (unknown origin) at 10 uM
[23] = molecular target: Kappa-type opioid receptor (Homo sapiens) (UniProt P41145); assay: Binding affinity to KOR (unknown origin) at 10 uM
[24] = molecular target: Muscarinic acetylcholine receptor M3 (Homo sapiens) (UniProt P20309); assay: Binding affinity to muscarinic M3 receptor (unknown origin) at 10 uM
[25] = molecular target: Muscarinic acetylcholine receptor M4 (Homo sapiens) (UniProt P08173); assay: Binding affinity to muscarinic M4 receptor (unknown origin) at 10 uM
[26] = molecular target: Muscarinic acetylcholine receptor M5 (Homo sapiens) (UniProt P08912); assay: Binding affinity to muscarinic M5 receptor (unknown origin) at 10 uM
[27] = molecular target: Glutamate NMDA receptor; GRIN1/GRIN2A (Homo sapiens) (UniProt Q05586+Q12879); assay: Binding affinity to NMDA receptor (unknown origin) at 10 uM; type: protein-complex assay
[28] = molecular target: Sodium-dependent serotonin transporter (Homo sapiens) (UniProt P31645); assay: Binding affinity to SERT (unknown origin) at 10 uM
[29] = molecular target: Sigma non-opioid intracellular receptor 1 (Homo sapiens) (UniProt Q99720); assay: Binding affinity to sigma-1 receptor (unknown origin) at 10 uM
Sigma 2 receptor = assay: Binding affinity to sigma-2 receptor (unknown origin) at 10 uM; conditions: Homo sapiens
[30] = molecular target: 5-hydroxytryptamine receptor 6 (Homo sapiens, UniProt P50406); assay: Binding affinity to 5HT6 receptor (unknown origin)
[31] = molecular target: Alpha-2A adrenergic receptor (Homo sapiens, UniProt P08913); assay: Binding affinity to alpha2A adrenoceptor (unknown origin)
[32] = molecular target: Alpha-2B adrenergic receptor (Homo sapiens, UniProt P18089); assay: Binding affinity to alpha2B adrenoceptor (unknown origin)
[33] = molecular target: Alpha-2C adrenergic receptor (Homo sapiens, UniProt P18825); assay: Binding affinity to alpha2C adrenoceptor (unknown origin)
[34] = molecular target: 5-hydroxytryptamine receptor 2B (Homo sapiens, UniProt P41595); assay: Displacement of [3H]LSD from 5HT2B receptor (unknown origin)

Sequence of D(1A) dopamine receptor (Homo sapiens) (P21728 whole entry): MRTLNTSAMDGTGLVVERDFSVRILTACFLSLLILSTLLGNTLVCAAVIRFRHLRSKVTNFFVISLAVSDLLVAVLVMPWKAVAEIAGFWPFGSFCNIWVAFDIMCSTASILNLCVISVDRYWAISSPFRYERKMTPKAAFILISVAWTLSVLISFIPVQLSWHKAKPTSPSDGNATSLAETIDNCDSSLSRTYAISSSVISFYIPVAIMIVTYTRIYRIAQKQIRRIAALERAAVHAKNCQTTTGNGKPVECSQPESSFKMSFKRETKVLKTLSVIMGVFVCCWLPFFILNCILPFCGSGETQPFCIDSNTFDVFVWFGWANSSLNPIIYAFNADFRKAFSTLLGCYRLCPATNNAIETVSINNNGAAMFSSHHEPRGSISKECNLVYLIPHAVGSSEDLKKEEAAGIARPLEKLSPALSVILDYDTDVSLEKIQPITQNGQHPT
Sequence of Kappa-type opioid receptor (Homo sapiens) (P41145 whole entry): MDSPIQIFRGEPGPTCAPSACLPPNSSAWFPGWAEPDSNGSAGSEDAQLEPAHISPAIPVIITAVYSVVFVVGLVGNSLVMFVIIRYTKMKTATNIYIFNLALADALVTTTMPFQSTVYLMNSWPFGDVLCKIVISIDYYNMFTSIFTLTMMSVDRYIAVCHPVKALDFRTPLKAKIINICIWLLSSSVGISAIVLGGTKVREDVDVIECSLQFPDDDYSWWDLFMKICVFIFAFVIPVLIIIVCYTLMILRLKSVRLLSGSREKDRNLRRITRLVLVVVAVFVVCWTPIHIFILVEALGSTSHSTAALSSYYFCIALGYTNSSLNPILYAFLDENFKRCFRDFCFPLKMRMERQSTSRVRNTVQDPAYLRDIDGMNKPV
Sequence of Histamine H2 receptor (Homo sapiens) (P25021 whole entry): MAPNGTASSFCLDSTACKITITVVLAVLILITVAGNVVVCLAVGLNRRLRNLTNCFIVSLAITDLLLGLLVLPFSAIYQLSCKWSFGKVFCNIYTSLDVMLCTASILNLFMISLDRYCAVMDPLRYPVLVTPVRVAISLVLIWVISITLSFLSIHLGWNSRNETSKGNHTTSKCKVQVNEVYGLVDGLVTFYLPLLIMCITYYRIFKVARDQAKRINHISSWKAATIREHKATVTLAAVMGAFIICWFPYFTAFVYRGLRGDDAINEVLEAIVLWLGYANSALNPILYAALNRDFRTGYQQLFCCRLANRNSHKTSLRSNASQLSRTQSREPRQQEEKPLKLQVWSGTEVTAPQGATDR
Sequence of Alpha-2A adrenergic receptor (P08913 whole entry): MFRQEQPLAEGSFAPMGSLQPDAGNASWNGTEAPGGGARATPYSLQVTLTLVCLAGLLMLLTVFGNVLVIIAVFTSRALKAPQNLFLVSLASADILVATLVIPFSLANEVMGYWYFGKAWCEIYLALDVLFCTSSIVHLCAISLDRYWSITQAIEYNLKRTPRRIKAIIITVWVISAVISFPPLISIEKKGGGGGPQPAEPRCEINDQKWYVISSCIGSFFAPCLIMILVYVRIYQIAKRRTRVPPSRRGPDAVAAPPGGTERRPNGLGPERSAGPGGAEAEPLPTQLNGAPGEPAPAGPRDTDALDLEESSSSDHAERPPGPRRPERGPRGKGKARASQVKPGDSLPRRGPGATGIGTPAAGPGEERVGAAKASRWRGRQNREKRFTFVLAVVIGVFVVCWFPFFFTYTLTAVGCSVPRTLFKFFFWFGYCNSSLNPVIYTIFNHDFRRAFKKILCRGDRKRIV
Sequence of Cannabinoid receptor 2 (Homo sapiens) (P34972 whole entry): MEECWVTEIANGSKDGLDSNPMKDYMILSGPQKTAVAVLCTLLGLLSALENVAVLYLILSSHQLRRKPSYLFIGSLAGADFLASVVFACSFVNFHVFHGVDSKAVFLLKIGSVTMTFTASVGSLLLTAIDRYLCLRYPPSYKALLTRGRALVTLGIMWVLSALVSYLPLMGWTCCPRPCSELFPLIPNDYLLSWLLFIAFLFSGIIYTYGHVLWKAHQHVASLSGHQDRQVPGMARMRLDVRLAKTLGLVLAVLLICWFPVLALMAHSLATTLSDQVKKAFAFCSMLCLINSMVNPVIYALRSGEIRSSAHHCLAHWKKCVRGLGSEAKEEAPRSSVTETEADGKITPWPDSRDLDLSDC
Sequence of Alpha-2B adrenergic receptor (P18089 whole entry): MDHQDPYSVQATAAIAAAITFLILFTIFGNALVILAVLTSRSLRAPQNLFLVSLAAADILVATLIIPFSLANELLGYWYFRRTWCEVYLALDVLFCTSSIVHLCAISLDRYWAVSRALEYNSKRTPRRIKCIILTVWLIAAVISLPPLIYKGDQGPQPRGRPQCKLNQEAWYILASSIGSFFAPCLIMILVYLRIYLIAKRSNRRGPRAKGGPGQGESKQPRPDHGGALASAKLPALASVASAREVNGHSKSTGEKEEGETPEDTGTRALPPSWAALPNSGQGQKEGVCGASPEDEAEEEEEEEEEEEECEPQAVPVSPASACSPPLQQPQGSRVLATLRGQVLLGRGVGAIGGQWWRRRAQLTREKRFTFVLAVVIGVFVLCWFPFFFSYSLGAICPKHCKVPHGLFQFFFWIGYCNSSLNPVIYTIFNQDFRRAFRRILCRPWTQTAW
Sequence of 5-hydroxytryptamine receptor 1E (Homo sapiens) (P28566 whole entry): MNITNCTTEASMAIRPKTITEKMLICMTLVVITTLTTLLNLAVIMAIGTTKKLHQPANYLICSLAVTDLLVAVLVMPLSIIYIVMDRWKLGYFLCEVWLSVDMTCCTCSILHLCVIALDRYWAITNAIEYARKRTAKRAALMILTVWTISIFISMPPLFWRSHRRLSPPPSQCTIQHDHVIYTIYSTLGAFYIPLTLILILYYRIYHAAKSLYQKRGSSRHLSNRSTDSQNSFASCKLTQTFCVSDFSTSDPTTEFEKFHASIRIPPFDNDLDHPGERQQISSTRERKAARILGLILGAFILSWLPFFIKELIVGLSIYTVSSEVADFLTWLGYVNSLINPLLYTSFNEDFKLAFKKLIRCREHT
Sequence of Sodium-dependent serotonin transporter (Homo sapiens) (P31645 whole entry, looked up): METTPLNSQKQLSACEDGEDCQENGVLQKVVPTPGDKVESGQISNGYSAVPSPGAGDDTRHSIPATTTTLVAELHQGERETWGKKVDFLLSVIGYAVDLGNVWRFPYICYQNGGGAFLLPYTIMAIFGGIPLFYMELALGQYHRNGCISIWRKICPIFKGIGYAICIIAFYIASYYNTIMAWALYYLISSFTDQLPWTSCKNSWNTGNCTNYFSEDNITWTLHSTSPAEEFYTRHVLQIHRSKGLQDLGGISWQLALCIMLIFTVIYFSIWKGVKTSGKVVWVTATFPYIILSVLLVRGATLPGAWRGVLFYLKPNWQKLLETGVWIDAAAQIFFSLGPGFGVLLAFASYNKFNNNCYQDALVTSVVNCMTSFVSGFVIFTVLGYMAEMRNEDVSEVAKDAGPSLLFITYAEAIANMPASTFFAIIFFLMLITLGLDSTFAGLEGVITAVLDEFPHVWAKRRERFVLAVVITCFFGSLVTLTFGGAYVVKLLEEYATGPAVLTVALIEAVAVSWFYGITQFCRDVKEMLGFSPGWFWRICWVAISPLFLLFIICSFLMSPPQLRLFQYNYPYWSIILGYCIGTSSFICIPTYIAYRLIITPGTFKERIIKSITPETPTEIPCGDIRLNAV
Sequence of 5-hydroxytryptamine receptor 1D (Homo sapiens) (P28221 whole entry): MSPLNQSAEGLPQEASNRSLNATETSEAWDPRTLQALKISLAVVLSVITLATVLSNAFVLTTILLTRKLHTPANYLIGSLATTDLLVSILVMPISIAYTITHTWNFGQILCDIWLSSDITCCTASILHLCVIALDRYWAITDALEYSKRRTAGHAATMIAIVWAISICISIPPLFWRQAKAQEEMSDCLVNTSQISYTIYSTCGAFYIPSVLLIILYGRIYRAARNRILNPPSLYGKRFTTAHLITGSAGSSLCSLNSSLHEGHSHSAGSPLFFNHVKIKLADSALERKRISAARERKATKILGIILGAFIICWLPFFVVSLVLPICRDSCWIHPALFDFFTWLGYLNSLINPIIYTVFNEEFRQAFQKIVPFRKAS
Sequence of Muscarinic acetylcholine receptor M5 (Homo sapiens) (P08912 whole entry): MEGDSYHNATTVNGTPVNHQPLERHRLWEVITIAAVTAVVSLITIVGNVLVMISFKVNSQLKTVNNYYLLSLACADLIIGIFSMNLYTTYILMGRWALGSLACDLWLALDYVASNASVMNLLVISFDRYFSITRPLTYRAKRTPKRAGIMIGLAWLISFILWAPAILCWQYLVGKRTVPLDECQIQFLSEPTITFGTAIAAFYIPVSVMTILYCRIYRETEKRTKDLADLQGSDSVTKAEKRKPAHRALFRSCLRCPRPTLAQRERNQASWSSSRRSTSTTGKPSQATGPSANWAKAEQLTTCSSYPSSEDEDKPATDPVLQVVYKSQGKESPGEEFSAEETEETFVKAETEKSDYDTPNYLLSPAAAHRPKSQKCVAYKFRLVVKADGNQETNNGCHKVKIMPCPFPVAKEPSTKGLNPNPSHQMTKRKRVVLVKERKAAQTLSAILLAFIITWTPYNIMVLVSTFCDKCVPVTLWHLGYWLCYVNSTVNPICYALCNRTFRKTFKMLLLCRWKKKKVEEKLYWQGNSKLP
Sequence of Muscarinic acetylcholine receptor M3 (Homo sapiens) (P20309 whole entry, looked up): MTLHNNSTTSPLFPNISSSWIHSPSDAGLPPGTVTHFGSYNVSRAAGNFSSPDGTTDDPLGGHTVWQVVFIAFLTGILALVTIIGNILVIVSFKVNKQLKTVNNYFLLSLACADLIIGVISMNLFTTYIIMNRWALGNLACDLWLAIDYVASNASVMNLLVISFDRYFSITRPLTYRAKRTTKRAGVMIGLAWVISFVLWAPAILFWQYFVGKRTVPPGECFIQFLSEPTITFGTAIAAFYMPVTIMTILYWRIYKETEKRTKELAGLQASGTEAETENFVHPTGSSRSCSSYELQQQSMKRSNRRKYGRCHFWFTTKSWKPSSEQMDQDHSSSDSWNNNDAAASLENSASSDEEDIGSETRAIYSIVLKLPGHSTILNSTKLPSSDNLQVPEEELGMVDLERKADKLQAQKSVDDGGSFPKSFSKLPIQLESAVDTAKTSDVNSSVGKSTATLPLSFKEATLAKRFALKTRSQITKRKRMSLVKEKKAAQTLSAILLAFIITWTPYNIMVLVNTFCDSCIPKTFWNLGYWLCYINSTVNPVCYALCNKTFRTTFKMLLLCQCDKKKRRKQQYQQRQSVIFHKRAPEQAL

SMILES: COc1cc2c3c(c1OC)-c1cc4c(cc1CC3N(C)CC2c1ccccc1)OCO4 (stereo unspecified)
- inhibition [1]: 22.6%
- inhibition [2]: 34.5%
- inhibition [3]: 10.1%
- inhibition [4]: 33.5%
- inhibition [5]: 8%
- inhibition [6]: < 50%
- inhibition [7]: < 50%
- inhibition [8]: < 50%
- inhibition [9]: < 50%
- inhibition [10]: < 50%
- inhibition (Rattus norvegicus): < 50%
- inhibition [11]: < 50%
- inhibition [12]: < 50%
- inhibition [13]: < 50%
- inhibition [14]: < 50%
- inhibition [15]: < 50%
- inhibition [16]: < 50%
- inhibition [17]: < 50%
- inhibition [18]: < 50%
- inhibition [19]: < 50%
- inhibition [20]: < 50%
- inhibition [21]: < 50%
- inhibition [22]: < 50%
- inhibition [23]: < 50%
- inhibition [24]: < 50%
- inhibition [25]: < 50%
- inhibition [26]: < 50%
- inhibition [27]: < 50%
- inhibition [28]: < 50%
- inhibition [29]: < 50%
- inhibition (Sigma 2 receptor): < 50%
- Ki [30]: 627 nM
- Ki [31]: 719 nM
- Ki [32]: 3.22 µM
- Ki [33]: 433 nM
- Ki [34]: 96 nM
